We go through 28 compounds from US9073918B2, “Pyrazolo[4,3-b]pyridine-7-amine inhibitors of ALK5” (Takeda Pharmaceutical Company Limited, priority 2010, dated 2015).

Experiment [1] has as its target T1, cellular TGF-β R1 ALK5 (Homo sapiens, UniProt P36897).
T1 construct: host or cells: CellSensor SBE-bla HEK 293T
T1 sequence (P36897 34-503): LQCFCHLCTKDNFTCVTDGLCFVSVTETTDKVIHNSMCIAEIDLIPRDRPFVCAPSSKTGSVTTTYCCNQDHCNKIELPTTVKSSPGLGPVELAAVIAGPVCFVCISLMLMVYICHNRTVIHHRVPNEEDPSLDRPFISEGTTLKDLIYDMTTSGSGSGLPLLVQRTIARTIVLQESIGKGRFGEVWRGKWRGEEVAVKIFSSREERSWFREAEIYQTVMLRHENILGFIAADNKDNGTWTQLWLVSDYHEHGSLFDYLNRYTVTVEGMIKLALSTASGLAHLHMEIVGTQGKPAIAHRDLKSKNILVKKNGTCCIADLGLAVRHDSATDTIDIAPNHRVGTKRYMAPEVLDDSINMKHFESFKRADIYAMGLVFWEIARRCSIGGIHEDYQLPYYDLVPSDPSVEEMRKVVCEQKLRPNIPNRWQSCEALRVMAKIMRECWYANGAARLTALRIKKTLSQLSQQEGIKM
Briefly: Cellular inhibition of ALK5 (CellSensor SBE-bla HEK 293T beta-lactamase reporter). It counts as cell-based. Particulars: cellular inhibition of ALK5, SBE-bla HEK 293T cells, TGFb-1 stimulated 5 hours; average where measured in multiple experiments. The method, boiled down:
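SBE-bla HEK 293T beta-lactamase reporter cells pre-incubated 1 h at 37 °C with 2.5-fold serially diluted compounds (0.5% DMSO), then stimulated 5 h with TGFb-1 (100 ng/mL stock).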

In experiment [2] the target is T2, TGF-β R1 ALK5 (Homo sapiens, UniProt P36897).
T2 construct: purchased Invitrogen PV5837
T2 sequence (P36897 34-503): T1 sequence (P36897 34-503)
In words: In vitro inhibition of ALK5 (LanthaScreen activity assay, TR-FRET). It counts as biochemical. A general note: In TR-FRET formats the signal depends on donor and acceptor labels being close together.

For orientation: IC50 means the concentration that gives 50% inhibition. A low value points to greater potency. With `CNC(=O)n1ncc2nccc(Nc3ccnc(-c4cc(Cl)c(F)cc4F)c3)c21` [Example 63, 7-(2-(5-chloro-2,4-difluorophenyl)pyridin-4-ylamino)-N-methyl-1H-pyrazolo[4,3-b]pyridine-1-carboxamide], the IC50 is 398 nM in experiment [1] and 31.6 nM in experiment [2].

With `Cc1cnc(-c2cc(Cl)ccc2F)cc1Nc1ccnc2cn(C)nc12` [Example 128, N-(2-(5-chloro-2-fluorophenyl)-5-methylpyridin-4-yl)-2-methyl-2H-pyrazolo[4,3-b]pyridin-7-amine], the IC50 in experiment [1] is 25.1 nM; in experiment [2] it was 6.31 nM.

As for `Cc1ccc(F)c(-c2cc(Nc3ccnc4cn(C[C@H](O)CO)nc34)ccn2)n1` [Example 69, (S)-3-(7-(3′-fluoro-6′-methyl-2,2′-bipyridin-4-ylamino)-2H-pyrazolo[4,3-b]pyridin-2-yl)propane-1,2-diol], the IC50 in experiment [1] and in experiment [2] was 5010 nM in each case.

Turning to `Cc1ccc(F)c(-c2cc(Nc3ccnc4cnn(C[C@@H](C)O)c34)c(C)cn2)n1` [Example 151, (R)-1-(7-(3′-fluoro-5,6′-dimethyl-2,2′-bipyridin-4-ylamino)-1H-pyrazolo[4,3-b]pyridin-1-yl)propan-2-ol], the IC50 in experiment [1] is 63.1 nM; in experiment [2], 6.31 nM.

For the compound `Fc1ccc(Cl)cc1-c1cc(Nc2ccnc3cnn(C4CCOCC4)c23)ccn1` [Example 21, N-(2-(5-chloro-2-fluorophenyl)pyridin-4-yl)-1-(tetrahydro-2H-pyran-4-yl)-1H-pyrazolo[4,3-b]pyridin-7-amine], the figures for the IC50 in experiment [1] and in experiment [2] were 794 nM and 100 nM, respectively.

For `Fc1ccc(Cl)cc1-c1cc(Nc2ccnc3cn(CC4CC4)nc23)ccn1` [Example 37, N-(2-(5-chloro-2-fluorophenyl)pyridin-4-yl)-2-(cyclopropylmethyl)-2H-pyrazolo[4,3-b]pyridin-7-amine], the values for the IC50 in experiment [1] and in experiment [2] were 398 nM and 63.1 nM, respectively.

In the case of `CC(C)n1ncc2nccc(Nc3ccnc(-c4cc(Cl)ccc4F)c3)c21` [Example 20, N-(2-(5-chloro-2-fluorophenyl)pyridin-4-yl)-1-isopropyl-1H-pyrazolo[4,3-b]pyridin-7-amine], the IC50 is 100 nM in experiment [1] and 39.8 nM in experiment [2].

Take `Cc1ccc(F)c(-c2cc(Nc3ccnc4cn(C[C@H](C)O)nc34)ccn2)n1` [Example 107, (S)-1-(7-(3′-fluoro-6′-methyl-2,2′-bipyridin-4-ylamino)-2H-pyrazolo[4,3-b]pyridin-2-yl)propan-2-ol]: the half-maximal inhibitory concentration (IC50) in experiment [1] is 39.8 nM; in experiment [2] it was 6.31 nM.

For `NC(=O)Cn1ncc2nccc(Nc3ccnc(-c4cc(F)ccc4F)c3)c21` [Example 86, 2-(7-(2-(2,5-difluorophenyl)pyridin-4-ylamino)-1H-pyrazolo[4,3-b]pyridin-1-yl)acetamide], the IC50 in experiment [1] is 158 nM; in experiment [2], 50.1 nM.

Take `CCCn1cc2nccc(Nc3ccnc(-c4cc(Cl)ccc4F)c3)c2n1` [Example 19, N-(2-(5-chloro-2-fluorophenyl)pyridin-4-yl)-2-propyl-2H-pyrazolo[4,3-b]pyridin-7-amine]: the IC50 was 398 nM in experiment [1] and 50.1 nM in experiment [2].

As for `Cc1ccc(F)c(-c2cc(Nc3ccnc4cnn(CCF)c34)ccn2)n1` [Example 101, N-(3′-fluoro-6′-methyl-2,2′-bipyridin-4-yl)-1-(2-fluoroethyl)-1H-pyrazolo[4,3-b]pyridin-7-amine], the IC50 in experiment [1] was 100 nM; in experiment [2] it was 25.1 nM.

In the case of `Cc1cc(Nc2ccnc3cnn(CC(N)=O)c23)cc(-c2cc(Cl)ccc2F)n1` [Example 60A, 2-(7-(2-(5-chloro-2-fluorophenyl)-6-methylpyridin-4-ylamino)-1H-pyrazolo[4,3-b]pyridin-1-yl)acetamide], the IC50 in experiment [1] was 501 nM; in experiment [2], 31.6 nM.

Consider `CCNC(=O)Cn1cc2nccc(Nc3cc(-c4cc(F)ccc4F)ncc3C)c2n1` [Example 156, 2-(7-(2-(2,5-difluorophenyl)-5-methylpyridin-4-ylamino)-2H-pyrazolo[4,3-b]pyridin-2-yl)-N-ethylacetamide], for which the IC50 in experiment [1] was 126 nM; in experiment [2], 3.16 nM.

Regarding `Cc1ccc(F)c(-c2cc(Nc3ccnc4cn([C@H]5CCOC5)nc34)c(C)cn2)n1` [Example 140, (S)—N-(3′-fluoro-5,6′-dimethyl-2,2′-bipyridin-4-yl)-2-(tetrahydrofuran-3-yl)-2H-pyrazolo[4,3-b]pyridin-7-amine], the IC50 is 50.1 nM in experiment [1] and 7.94 nM in experiment [2].

Regarding `Cc1ccc(F)c(-c2cc(Nc3ccnc4cnn(CCF)c34)c(C)cn2)n1` [Example 130, N-(3′-fluoro-5,6′-dimethyl-2,2′-bipyridin-4-yl)-1-(2-fluoroethyl)-1H-pyrazolo[4,3-b]pyridin-7-amine], the IC50 in experiment [1] was 20 nM; in experiment [2], 3.98 nM.

Regarding `Cc1ccc(F)c(-c2cc(Nc3ccnc4cnn(CCO)c34)c(C)cn2)n1` [Example 10, 2-(7-(3′-fluoro-5,6′-dimethyl-2,2′-bipyridin-4-ylamino)-1H-pyrazolo[4,3-b]pyridin-1-yl)ethanol], the IC50 in experiment [1] was 20 nM; in experiment [2], 10 nM.

`Cc1ccc(F)c(-c2cc(Nc3c(F)cnc4cn(CC(C)(C)O)nc34)c(C)cn2)n1` [Example 99, 1-(6-fluoro-7-(3′-fluoro-5,6′-dimethyl-2,2′-bipyridin-4-ylamino)-2H-pyrazolo[4,3-b]pyridin-2-yl)-2-methylpropan-2-ol]: the IC50 in experiment [1] is 1260 nM; in experiment [2], 501 nM.

Regarding `CNC(=O)n1ncc2nccc(Nc3cc(-c4cc(F)ccc4F)ncc3C)c21` [Example 116, 7-(2-(2,5-difluorophenyl)-5-methylpyridin-4-ylamino)-N-methyl-1H-pyrazolo[4,3-b]pyridine-1-carboxamide], the IC50 is 25.1 nM in experiment [1] and 1 nM in experiment [2].

`CCNC(=O)n1ncc2nccc(Nc3cc(-c4nc(C)ccc4F)ncc3C)c21` [Example 115, N-ethyl-7-(3′-fluoro-5,6′-dimethyl-2,2′-bipyridin-4-ylamino)-1H-pyrazolo[4,3-b]pyridine-1-carboxamide]: the IC50 is 6.31 nM in experiment [1] and less than 1 nM in experiment [2].

On to `Cc1cnc(-c2cc(Cl)ccc2F)cc1Nc1ccnc2cnn(CC(N)=O)c12` [Example 51, 2-(7-(2-(5-chloro-2-fluorophenyl)-5-methylpyridin-4-ylamino)-1H-pyrazolo[4,3-b]pyridin-1-yl)acetamide], for which the IC50 is 20 nM in experiment [1] and 12.6 nM in experiment [2].

In the case of `CCn1ncc2ncc(F)c(Nc3cc(-c4nc(C)ccc4F)ncc3C)c21` [Example 139, 1-ethyl-6-fluoro-N-(3′-fluoro-5,6′-dimethyl-2,2′-bipyridin-4-yl)-1H-pyrazolo[4,3-b]pyridin-7-amine], the IC50 in experiment [1] is 126 nM; in experiment [2], 25.1 nM.

With `Cc1ccc(F)c(-c2cc(Nc3ccnc4cn([C@@H]5CCOC5)nc34)c(C)cn2)n1` [Example 136, (R)—N-(3′-fluoro-5,6′-dimethyl-2,2′-bipyridin-4-yl)-2-(tetrahydrofuran-3-yl)-2H-pyrazolo[4,3-b]pyridin-7-amine], the half-inhibitory concentration (IC50) was 79.4 nM in experiment [1] and 6.31 nM in experiment [2].

On to `Cc1ccc(F)c(-c2cc(Nc3c(F)cnc4cn(CCO)nc34)c(C)cn2)n1` [Example 91, 2-(6-fluoro-7-(3′-fluoro-5,6′-dimethyl-2,2′-bipyridin-4-ylamino)-2H-pyrazolo[4,3-b]pyridin-2-yl)ethanol], for which the IC50 in experiment [1] was 158 nM; in experiment [2] it was 20 nM.

For the compound `Cc1nc(-c2cc(F)ccc2F)cc(Nc2ccnc3c[nH]nc23)c1C` [Example 95, N-(6-(2,5-difluorophenyl)-2,3-dimethylpyridin-4-yl)-2H-pyrazolo[4,3-b]pyridin-7-amine], the IC50 in experiment [1] is 158 nM; in experiment [2], 20 nM.

Consider `CNC(=O)n1ncc2nccc(Nc3cc(C)nc(-c4cc(Cl)ccc4F)c3)c21` [Example 58, 7-(2-(5-chloro-2-fluorophenyl)-6-methylpyridin-4-ylamino)-N-methyl-1H-pyrazolo[4,3-b]pyridine-1-carboxamide], for which the IC50 was 126 nM in experiment [1] and 79.4 nM in experiment [2].

Turning to `CCCn1ncc2nccc(Nc3ccnc(-c4cc(Cl)ccc4F)c3)c21` [Example 18, N-(2-(5-chloro-2-fluorophenyl)pyridin-4-yl)-1-propyl-1H-pyrazolo[4,3-b]pyridin-7-amine], the IC50 in experiment [1] is 631 nM; in experiment [2], 50.1 nM.

With `CCn1cc2ncc(F)c(Nc3cc(-c4nc(C)ccc4F)ncc3C)c2n1` [Example 138, 2-ethyl-6-fluoro-N-(3′-fluoro-5,6′-dimethyl-2,2′-bipyridin-4-yl)-2H-pyrazolo[4,3-b]pyridin-7-amine], the half-inhibitory concentration (IC50) in experiment [1] was 15.8 nM; in experiment [2], 7.94 nM.

Take `Cc1cnc(-c2cc(Cl)ccc2F)cc1Nc1ccnc2cn(CC(N)=O)nc12` [Example 50, 2-(7-(2-(5-chloro-2-fluorophenyl)-5-methylpyridin-4-ylamino)-2H-pyrazolo[4,3-b]pyridin-2-yl)acetamide]: the IC50 is 12.6 nM in experiment [1] and 15.8 nM in experiment [2].
